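Growth conditions: 96-well plates. Treatment: test compound, 48 hours, 5 concentrations. Analysis: linear interpolation between bracketing concentrations; unreached endpoints set to highest concentration. TGI is the concentration that stops growth completely.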 Where a SMILES comes first, the peptide text is derived from it. [ ]: non-standard residue; d: D form. The star is where a group is joined. ξ: configuration not given here. ξD = NC(CC(=O)O)C(=O)O; Ac3c = NC1(C(=O)O)CC1; Boc = CC(C)(C)OC(=O)*; OBn = c1ccc(CO*)cc1
Assays:
Assay in all cases: NCI anticancer screen, dose series, 48 h
[1] = system: K-562 leukemia
[2] = system: HS 578T breast
[3] = system: SK-OV-3 ovarian
[4] = system: SK-MEL-5 melanoma
[5] = system: SK-MEL-2 melanoma
[6] = system: SN12C renal
[7] = system: A549 NSCLC
[8] = system: SR leukemia
[9] = system: BT-549 breast
[10] = system: HCC-2998 colon

Nc1ccc(-c2nc3cc(F)ccc3s2)cc1I
TGI [1]: > 100 µM
TGI [2]: > 75.1 µM
TGI [3]: 32.9 µM
TGI [4]: > 70.4 µM
TGI [5]: 50.6 µM
TGI [6]: > 69.8 µM
TGI [7]: > 100 µM
TGI [8]: > 59.5 µM
TGI [9]: 29.9 µM

COc1ccccc1NC(=S)N/N=C(/C)c1ccccn1
TGI [1]: > 100 µM
TGI [2]: > 100 µM
TGI [3]: > 89.2 µM
TGI [10]: > 100 µM
TGI [5]: > 88.7 µM
TGI [6]: 6.73 µM
TGI [7]: > 55.3 µM

CSc1nc(NC2OCC(O)C(O)C2O)c(N)c(=O)n1C (centres undefined)
TGI [1]: > 100 µM
TGI [3]: > 100 µM
TGI [4]: > 100 µM
TGI [10]: > 100 µM
TGI [5]: > 100 µM
TGI [6]: > 100 µM
TGI [7]: > 100 µM

COC(=O)C(Cc1c[nH]c2ccccc12)NC(=O)C(Cc1c[nH]c2ccccc12)NC(=O)C(Cc1c[nH]c2ccccc12)NC(=O)C(Cc1c[nH]c2ccccc12)NC(=O)OC(C)(C)C (centres undefined) (Boc-WWWW-OMe; configuration not given here)
TGI [1]: > 100 µM
TGI [4]: > 100 µM
TGI [10]: 38.5 µM
TGI [6]: > 100 µM
TGI [7]: > 100 µM
TGI [8]: 56.6 µM
TGI [9]: 70.2 µM

C=CCN(c1cc(OCc2ccccc2)c(NC(C)=O)cc1[N+](=O)[O-])S(C)(=O)=O
TGI [1]: > 100 µM
TGI [2]: 56.7 µM
TGI [3]: 38.7 µM
TGI [4]: > 100 µM
TGI [10]: > 100 µM
TGI [5]: 73.1 µM
TGI [6]: > 100 µM
TGI [7]: > 100 µM
TGI [9]: 93.3 µM

CCOC(=O)c1c2c(n(-c3ccc(OC)cc3)c1C)C(=O)C(=O)c1ccccc1-2
TGI [2]: 6.32 µM
TGI [3]: 6.03 µM
TGI [4]: 2.59 µM
TGI [10]: 3.38 µM
TGI [5]: > 21.8 µM
TGI [6]: 3.19 µM
TGI [7]: 4.46 µM
TGI [9]: 4.32 µM

CC(=Nc1c2ccccc2nc2ccccc12)N(C)C
TGI [1]: 25.4 µM
TGI [2]: 69.8 µM
TGI [3]: > 100 µM
TGI [4]: 27.8 µM
TGI [5]: 46 µM
TGI [7]: > 100 µM
TGI [8]: 23.3 µM
TGI [9]: 90.7 µM

CCOC(=O)C(NC(=O)CC(C)C)(Nc1ccc(C(F)(F)F)cc1)C(F)(F)F (centres undefined)
TGI [1]: > 100 µM
TGI [2]: > 100 µM
TGI [3]: > 100 µM
TGI [4]: > 100 µM
TGI [10]: > 100 µM
TGI [5]: > 100 µM
TGI [6]: > 100 µM
TGI [7]: > 100 µM
TGI [8]: > 100 µM

Cc1ccc(NC(=S)Nc2c(C)n(C)n(-c3ccccc3)c2=O)cc1
TGI [1]: > 100 µM
TGI [2]: > 100 µM
TGI [3]: > 100 µM
TGI [4]: > 100 µM
TGI [10]: > 100 µM
TGI [7]: > 100 µM
TGI [8]: > 100 µM
TGI [9]: > 100 µM

O=C(Nc1nnc(-c2ccccc2)o1)C(SC(=S)N1CCOCC1)c1ccccc1 (centres undefined)
TGI [1]: > 100 µM
TGI [2]: > 100 µM
TGI [3]: > 100 µM
TGI [4]: 38.7 µM
TGI [5]: > 100 µM
TGI [6]: > 100 µM
TGI [7]: > 100 µM
TGI [8]: 83.7 µM
TGI [9]: > 100 µM

O=C1CCC2(CC1CCSc1ccccc1)OCCO2 (centres undefined)
TGI [1]: > 100 µM
TGI [2]: > 100 µM
TGI [3]: > 100 µM
TGI [4]: > 100 µM
TGI [10]: > 100 µM
TGI [5]: > 100 µM
TGI [7]: > 100 µM
TGI [8]: > 100 µM

O=c1[nH]c(=O)n(COCc2ccccc2)c2ccc(Br)cc12
TGI [1]: > 100 µM
TGI [3]: > 100 µM
TGI [4]: > 100 µM
TGI [5]: > 100 µM
TGI [6]: > 100 µM
TGI [7]: > 100 µM
TGI [8]: > 100 µM

C[C@H](CC[C@@H](O)C(C)(C)O)[C@H]1CC[C@@]2(C)[C@@H]3CC=C4[C@@H](CC[C@H](O)C4(C)C)[C@]3(C)C(=O)C[C@]12C
TGI [1]: > 50 µM
TGI [2]: > 50 µM
TGI [3]: > 50 µM
TGI [4]: > 50 µM
TGI [5]: > 50 µM
TGI [6]: > 50 µM
TGI [7]: > 50 µM
TGI [8]: > 50 µM
TGI [9]: > 50 µM

CC1(C)CN(c2ccccc2)C(=O)C1OC(=O)[C@@]1(C)C[C@@H]2C=C[C@H]1C2 (some centres undefined)
TGI [1]: > 100 µM
TGI [2]: 54.7 µM
TGI [3]: 94.7 µM
TGI [4]: 29.4 µM
TGI [5]: 35.4 µM
TGI [6]: 49.8 µM
TGI [7]: 83.7 µM
TGI [9]: 82.5 µM

COC(=O)C1(NC(=O)C(CC(=O)OCc2ccccc2)NC(=O)OC(C)(C)C)CC1 (centres undefined) (Boc-[ξD](OBn)-[Ac3c]-OMe)
TGI [1]: > 100 µM
TGI [2]: > 100 µM
TGI [3]: 77.4 µM
TGI [4]: > 100 µM
TGI [5]: > 100 µM
TGI [6]: > 100 µM
TGI [7]: > 100 µM
TGI [9]: > 100 µM

CCCn1c(=O)c2ccccc2[n+]2c(-c3ccc([N+](=O)[O-])cc3)csc12
TGI [1]: 69.4 µM
TGI [2]: > 100 µM
TGI [3]: > 100 µM
TGI [4]: 45.7 µM
TGI [10]: > 100 µM
TGI [5]: > 100 µM
TGI [6]: > 100 µM
TGI [7]: > 100 µM
TGI [9]: > 100 µM

N=S(=O)(c1ccccc1)c1ccccc1[N+](=O)[O-] (centres undefined)
TGI [1]: > 100 µM
TGI [3]: > 100 µM
TGI [4]: > 100 µM
TGI [10]: > 100 µM
TGI [5]: > 100 µM
TGI [6]: > 100 µM
TGI [7]: > 100 µM
TGI [8]: > 100 µM

CN(C)CCOC(=O)c1ccc(N)cc1
TGI [1]: > 100 µM
TGI [2]: > 100 µM
TGI [3]: > 100 µM
TGI [4]: > 100 µM
TGI [10]: 31.4 µM
TGI [6]: > 100 µM
TGI [7]: > 100 µM
TGI [9]: > 100 µM

CC1CCc2c(sc3ncnc(N/N=C/c4ccc(Cl)c(Cl)c4)c23)C1 (centres undefined)
TGI [1]: > 100 µM
TGI [3]: 89.6 µM
TGI [4]: 51.3 µM
TGI [10]: > 100 µM
TGI [5]: > 100 µM
TGI [6]: > 100 µM
TGI [7]: 34.4 µM
TGI [8]: 33 µM

O=C(OCCN1CCCCC1)C(c1ccccc1)C1(O)CCSCC1 (centres undefined)
TGI [1]: > 100 µM
TGI [2]: > 100 µM
TGI [3]: > 100 µM
TGI [4]: > 100 µM
TGI [10]: > 100 µM
TGI [5]: > 100 µM
TGI [6]: > 100 µM
TGI [7]: > 100 µM
TGI [8]: > 100 µM

COc1ccc2c(c1)nc1n2C(N)=Nc2ccccc2S1
TGI [1]: > 57.8 µM
TGI [2]: > 100 µM
TGI [3]: > 100 µM
TGI [4]: > 61.9 µM
TGI [10]: > 100 µM
TGI [5]: > 100 µM
TGI [6]: > 100 µM
TGI [7]: > 100 µM
TGI [9]: > 100 µM

COc1c(OC)c(O)c2c(=O)c(OC)c(-c3ccc4c(c3)OCO4)oc2c1O
TGI [1]: > 100 µM
TGI [2]: > 100 µM
TGI [3]: > 100 µM
TGI [4]: > 100 µM
TGI [10]: > 100 µM
TGI [5]: > 100 µM
TGI [6]: > 100 µM
TGI [7]: > 100 µM
TGI [9]: > 100 µM

CO/C(=N\N=C\c1ccc(Cl)cc1Cl)c1ccncc1
TGI [1]: > 10 µM
TGI [5]: > 10 µM
TGI [6]: > 10 µM
TGI [7]: > 10 µM
TGI [8]: > 10 µM
TGI [9]: > 10 µM

O=C(NNc1cn[nH]c(=O)c1Cl)/C(=C/c1ccc2c(c1)OCO2)NC(=O)c1ccccc1
TGI [3]: > 100 µM
TGI [4]: > 100 µM
TGI [10]: > 100 µM
TGI [5]: > 100 µM
TGI [6]: > 100 µM
TGI [7]: > 100 µM
TGI [9]: 49.1 µM

From PubChem BioAssay (NCI)
